Measured values taken from US10231939B2, “Hydroxytyrosol and oleuropein compositions for induction of DNA damage, cell death and LSD1 inhibition” (priority 2012, dated 2019).

Legend:
LSD1 = LSD1 (Homo sapiens, UniProt O60341); assay: LSD1 Demethylase Profiling (HRP/Amplex Red); type: biochemical; conditions: for LSD1 inhibition (in words): 10-dose, 3-fold serial dilution starting at 100 μM, 10 μM Histone H3 (1-21) K4me2 peptide
Description: (§1) Formulation 2 (4× diluted) was tested against positive control tranylcypromine for LSD1 inhibition activity. […] The production of FAD-dependent H2O2 as a result of demethylase activity of LSD1 is measured by coupling with HRP and Amplex Red and fluorescence was measured using the EnVision plate reader at Ex/Em=535/590 nm. 10 μM Histone H3 (1-21) K4me2 peptide was used as the standard substrate. Data was represented at the percentage of LSD1 enzymatic activity inhibition relative to DMSO controls and a curve fit for the control compound.
as §1, with “Hydroxytyrosol” for “Formulation 2 (4× diluted)”

PBMC = assay: Total Antioxidant Capacity Assay, PBMC; type: cell-based, human; conditions: 50 μM hydroxytyrosol, 200 μM Oleuropein or Formulation 2 (dilution factor=4), 24 hours
Description: Human peripheral blood mononuclear cells were seeded at 1×10^6 cells per well in 12 well culture plates (Nalge Nunc) with Formulation 2 (dilution factor=4) (Table 9), 50 μM hydroxytyrosol or 200 μM Oleuropein for 24 hours; 37° C., 5% (v/v) CO2. In separate experiments, cells were treated with 30 mM glucose for 72 hours prior to 24 hours incubation in fresh media and then a 24 hour incubation with the hydroxytyrosol-containing formulation 2 (dilution factor=4); 37° C., 5% (v/v) CO2. Experiments to determine the protection of cells following doxorubicin treatment involved pre-treatment with Formulation 2 (dilution factor=4) for 24 hours prior to 1 hour incubation with 1 μM doxorubicin. Cells were washed and incubated for a further 24 hours in fresh media; 37° C., 5% (v/v) CO2. Cells were harvested for their total protein by centrifugation at 1000×g for 10 minutes at 4° C. to pellet cell suspensions. […] Cell lysates were analyzed for their total antioxidant capacity. […] The sum of endogenous and food-derived antioxidants in the sample represented the total antioxidant activity of the cells and was measured by their ability to inhibit the oxidation of ABTS (2,2′-Azino-di-[3-ethylbenzthiazoline sulphonate]) in the presence of metmyoglobin using the Perkin Elmer Multi-plate reader (λem=750 nm). […]

SMILES: OCCc1ccc(O)c(O)c1 [HT, 4-(2-hydroxyethyl)-1,2-benzenediol]
- LSD1 inhibition (in words) (LSD1; listed as Hydroxytyrosol): Hydroxytyrosol is a potent
- LSD1 inhibition (in words) (LSD1; listed as hydroxytyrosol): potent inhibitor of LSD1
- LSD1 inhibition compared with tranylcypromine (LSD1; positive control tranylcypromine): more effective LSD1 inhibitor against tranylcypromine
- total antioxidant capacity (PBMC; listed as Hydroxytyrosol): significantly increased the total antioxidant
- total antioxidant capacity (PBMC; listed as hydroxytyrosol): enhance the antioxidant capacity
